According to article PMC6006164, “Natural cyclopeptide RA-V inhibits the NF-κB signaling pathway by targeting TAK1” (Cell Death & Disease, 2018):
Where “and” joins values, the source holds several entries; their conditions need not be identical. Equal values may be shown once.

How the values were obtained:
NF-κB signaling pathway = test: NF-κB-dependent luciferase reporter (5×κB-luciferase/pTK-Renilla), TNF-α-induced, HEK293T cells; type: cell-based; settings: for IC50: HEK293T, compounds 6 h, then 10 ng/ml TNF-α 2 h, means of three independent experiments, read-out: IC50 (μM), NF-κB reporter activity
Protocol: HEK293T or HeLa cells were seeded in 24-well plates and transiently transfected with the 5 × κB-luciferase and pTK-Renilla reporters using Lipofectamine 2000 (Invitrogen) for 18 h. The cells were then incubated with different concentrations of the compounds for the indicated times and subsequently stimulated with 10 ng/mL TNF-α for 2 h. The luciferase activity in the cell lysates was analyzed using the Dual Luciferase Reporter Assay System (Promega). The luciferase reporter assays were performed as previously described.
Supplementary Figure 1. RA-V has the best inhibitory effect on NF-κB signaling pathway among RAs. (a-b) HEK293T cells were transfected with the 5×κB-luciferase and pTK-Renilla reporters. Twenty-four hours after transfection, the cells were incubated with various concentrations of the indicated compounds for 6 h and then treated with 10 ng/ml TNF-α for 2 h before the luciferase activity assays. The data are presented as the means ± S.D. from three independent experiments. […]
Scheme for CB12 synthesis. (c) CB12 inhibited NF-κB reporter activity in a dose-dependent manner. The HEK293T cells were transfected with the 5×κB-luciferase and pTK-Renilla reporters. Twenty-four h after transfection, the cells were treated with various concentrations of CB12 for 6 h and then treated with 10 ng/ml TNF-α for 2 h before the luciferase activity assays. (d) […]
Supplementary Table 3: Screening data of small molecules
Category Parameter Description
Assay Type of assay Cell-based
Target NF-κB signaling pathway
Primary measurement Detection of Firefly luciferase enzyme activities and Renilla Luciferase expression
Key reagents 5 × κB-lucieferase and luciferase assay (Progema)
Assay protocol HEK293T cells were seeded in 24 -well plates and transiently transfected with 20 ng of 5×κB-luciferase and 2 ng of pTK-Renilla reporters using Lipofectamine
2000 (Invitrogen) for 18 h. The cells were then incubated with small molecules (10 μM) for 6 hours, and subsequently stimulated with 10 ng/ml TNF -α for 2 h. Luciferase activity of the cell lysates was analysed by the Dual Luciferase Reported Assay System
(Promega). The Firefly luciferase enzyme activities were determined for NF -κB signaling activities and normalized to Renilla Luciferase expression.
Library Library size approximately 200
Library composition natural and synthetic chemical compounds, including cyclopeptides, quinones and terpenes.
Source State Key Laboratory of Phytochemistry and Plant
Resources in West China, Kunming Institute of Botany, Chinese Academy of Sciences
Screen Format 24-well, Corning
Concentration(s) tested 10 μM
Reagent/ compound dispensing system Manual
Detection instrument and software Synergy 2 (BioTek)
Assay validation/QC Velcade inhibits NF-κB signaling pathway
Normalization The Firefly luciferase enzyme activities were normalized by Renilla Luciferase expression
Post-HTS analysis Hit criteria κB-luc/ Renilla ratio < 0.5 standard deviations from the […]
Hit rate Approximately 15%
Confirmation of hit purity and structure Compounds were verified by HPLC and NMR

TAK1 = molecular target: T1, TAK1 (Homo sapiens, UniProt O43318); test: Streptavidin agarose pull-down with biotin-tagged probe CB12; type: binding; settings: lysates of HEK293T transfected with TAK1; RA-V in 10-fold excess
T1 construct: expressed in transfected cells; host or cells: HEK293T
T1 sequence (O43318 1-579 isoform O43318-2): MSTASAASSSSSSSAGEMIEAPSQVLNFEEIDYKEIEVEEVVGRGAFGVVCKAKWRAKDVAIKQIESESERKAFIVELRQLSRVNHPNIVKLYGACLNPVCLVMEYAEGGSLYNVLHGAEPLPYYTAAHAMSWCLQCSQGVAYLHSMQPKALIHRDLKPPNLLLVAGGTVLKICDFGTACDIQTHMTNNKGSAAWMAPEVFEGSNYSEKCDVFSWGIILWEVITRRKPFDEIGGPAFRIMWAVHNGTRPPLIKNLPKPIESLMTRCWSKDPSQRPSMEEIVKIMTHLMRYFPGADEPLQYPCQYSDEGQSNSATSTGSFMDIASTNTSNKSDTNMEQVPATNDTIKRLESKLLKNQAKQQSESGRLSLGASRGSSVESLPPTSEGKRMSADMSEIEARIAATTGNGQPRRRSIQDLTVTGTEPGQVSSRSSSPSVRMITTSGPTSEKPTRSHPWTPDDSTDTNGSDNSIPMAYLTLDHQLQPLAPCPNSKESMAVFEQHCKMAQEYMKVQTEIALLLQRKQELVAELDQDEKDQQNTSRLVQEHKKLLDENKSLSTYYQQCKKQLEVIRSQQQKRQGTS
Protocol: HEK293T cells were transfected with TAK1 for 24 h, then the cell lysates were incubated with biotin or CB12 followed by streptavidin agarose pull-down. […] HEK293T cells were transfected with the indicated plasmids for 24 h. The cell lysates were pulled down with streptavidin agarose and then immunoblotted with HA or Flag antibody. Each experiment was repeated at least three times
HEK293T cells were transfected with TAK1-N or TAK1-C for 24 h. The cells lysates were incubated with CB12 or biotin and precipitated with streptavidin-coated sepharose and were analyzed by immunoblotting with Flag antibody. b The model for RA-V binding to the crystal structure of the TAK1–TAB1 fusion protein (PDB 4GS6). […] HEK293T cells were transfected with TAK1 for 24 h, and then the cell lysates were incubated with biotin or CB12 before precipitation with streptavidin agarose. […] HeLa cells were incubated with various concentrations of RA-V for 12 h and then treated with 10 ng/mL TNF-α for 10 min. The cell lysates were prepared and western blotted with the indicated antibodies. Each experiment was repeated at least three times
HEK293T cells were harvested and lysed in RIPA buffer with protease inhibitors. […] The samples were separated by SDS-PAGE, and the bound proteins were detected using the indicated antibodies.

Row | IC50 (NF-κB signaling pathway) | Molecule | other results
1 | > 15 µM | O-seco-RA-V | –
2 | > 15 µM | RA-XIII | –
3 | 6.87 µM | Rubicordifolin C | –
4 | > 15 µM and 15.1 µM | Rubiyunnanin B | –
5 | > 15 µM | RA-XI isoform 2 | –
6 | 10.6 µM | RA-IV | –
7 | 11.9 µM | RA-XXIV | –
8 | > 15 µM | Rubiyunnanin F | –
9 | > 15 µM | Rubiaschumanin A | –
10 | 1.1 µM | RA-III | –
11 | > 15 µM | Rubiyunnanin I | –

Second part, the molecule before the results:

Row | Molecule | IC50 (NF-κB signaling pathway) | other results
12 | Rubiyunnanin A | > 15 µM | –
13 | Rubiaschumanin C | > 15 µM | –
14 | CC(C)C[C@H](NC(=O)[C@H](Cc1ccccc1)NC(=O)c1cnccn1)B(O)O [Velcade, Bortezomib, reference compound] | – | NF-κB signaling pathway (plate control, assay validation) (NF-κB signaling pathway; HEK293T screen, 24-well): inhibits
15 | Rubiyunnanin E | > 15 µM | –
16 | Rubiyunnanin H | > 15 µM | –
17 | Rubicordifolin A | 3.41 µM | –
18 | RA-VII | 0.089 µM | –
19 | RA-XII | 1.85 µM | –
20 | Rubiaschumanin B | 3.88 µM | –
21 | COc1cc(O)c2c(c1)/C=C/C[C@H](O)[C@H](O)C(=O)/C=C\C[C@H](C)OC2=O [(5Z)-7-Oxozeaenol, reference compound] | – | competition with the CB12–TAK1 interaction (pull-down) (TAK1): effectively competed
22 | Rubiyunnanin D | > 15 µM | –
23 | RY-II | > 15 µM and 19 µM | –
24 | RA-XI isoform 1 | > 15 µM | –
25 | RA-XIII-OMe | > 15 µM | –
26 | Rubiyunnanin G | > 15 µM | –
27 | C-6β-oxy-RA-IV | 2.06 µM | –
28 | Rubiyunnanin C | > 15 µM | –
29 | RA-I | 1.31 µM | –
